Experimental data reported in US20100204182A1, “ECTONUCLEOTIDASE INHIBITORS” (RHEINISCHE FRIEDRICH-WILHELMS-UNIVERSITAT BONN, priority 2006, published 2010).

Legend:
[1] = biological target: T1, rat ecto-5′-nucleotidase (Rattus norvegicus, UniProt P21588); experiment: Ecto-5′-nucleotidase assay by capillary electrophoresis (CE); assay type: biochemical; conditions: CE method, read-out: Rat Ecto-5′-NT Ki [μM] ± SEM
T1 construct: Catalytically active recombinant soluble glutathione-S-transferase/ecto-5′-nucleotidase fusion protein; GST (glutathione-S-transferase); made in house; host or cells: insect cells, baculovirus system
T1 sequence (P21588 29-551 limits assumed): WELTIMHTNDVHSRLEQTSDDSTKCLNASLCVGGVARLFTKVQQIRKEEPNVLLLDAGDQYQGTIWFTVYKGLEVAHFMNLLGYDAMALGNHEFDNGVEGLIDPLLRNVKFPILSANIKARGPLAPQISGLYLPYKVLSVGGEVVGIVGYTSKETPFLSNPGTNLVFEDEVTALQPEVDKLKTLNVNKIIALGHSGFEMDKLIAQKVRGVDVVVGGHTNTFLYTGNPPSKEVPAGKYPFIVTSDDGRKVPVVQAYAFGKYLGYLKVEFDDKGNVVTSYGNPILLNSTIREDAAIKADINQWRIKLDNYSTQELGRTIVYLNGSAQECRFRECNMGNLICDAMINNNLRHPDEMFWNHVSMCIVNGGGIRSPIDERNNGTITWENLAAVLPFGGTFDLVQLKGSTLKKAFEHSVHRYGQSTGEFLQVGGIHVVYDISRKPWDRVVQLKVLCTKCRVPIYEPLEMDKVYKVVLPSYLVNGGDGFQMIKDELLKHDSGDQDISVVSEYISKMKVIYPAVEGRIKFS
Protocol: Catalytically active recombinant soluble glutathione-S-transferase/ecto-5′-nucleotidase fusion protein was expressed in insect cells using the baculovirus system and purified by affinity chromatography using agarose-coupled GSH as previously described [Servos, J., Reilander, H., Zimmermann, H. Drug. Dev. Res. 1998, 45, 269-276]
Enzyme assays were carried out at 37° C. in a final volume of 100 μl. The reaction buffer consisted of 10 mM Hepes (2.38 g/L), 2 mM MgCl2 […], and 1 mM CaCl2 (0.11 g/L), brought to pH 7.4 by adding the appropriate amount of 1-N aqueous HCl solution. The reaction was initiated by the addition of 10 μl of the appropriately diluted enzyme (0.52 μg). The reaction mixture was incubated for 10 min and terminated by heating at 99° C. for 5 min. Nucleosides and nucleotides were stable under these conditions. Aliquots of the reaction mixture (50 μl) were then transferred to mini-CE vials containing 50 μl of the internal standard uridine (final concentration 20 μM). In the absence of an internal standard similar results were obtained. Each analysis was repeated twice (duplicates) in three separate experiments.
CE separations were carried out using a P/ACE MDQ system (Beckman Coulter Instruments, Fullerton, Calif., USA) equipped with a DAD detection system. The electrophoretic separations were carried out using an eCAP fused-silica capillary [30 cm (20 cm effective length)×75 μm internal diameter (I.D), ×375 μm outside diameter (O.D) obtained from Beckman Coulter]. The following conditions were applied: T=25° C., λmax=260 nm, voltage=15 kV, running buffer 40 mM sodium borate buffer, pH 9.1. The capillary was washed with 0.1 M NaOH for 2 min, deionized water for 1 min, and running buffer for 1 min before each injection. Injections were made by applying 0.1 psi of pressure to the sample solution for 30 s. The amount of adenosine formed was determined. The CE instrument was fully controlled through a personal computer, which operated with the analysis software 32 KARAT obtained from Beckman Coulter. Electropherograms were evaluated using the same software.

[2] = biological target: T2, human NTPDase1 (Homo sapiens, UniProt P49961); experiment: NTPDase inhibition assay by capillary electrophoresis (CE), NTPDase1; assay type: biochemical; conditions: CE method, ATP 320 μM, Km 17 μM, read-out: NTPDase1 Ki [μM] ± SEM
T2 sequence (P49961 1-510): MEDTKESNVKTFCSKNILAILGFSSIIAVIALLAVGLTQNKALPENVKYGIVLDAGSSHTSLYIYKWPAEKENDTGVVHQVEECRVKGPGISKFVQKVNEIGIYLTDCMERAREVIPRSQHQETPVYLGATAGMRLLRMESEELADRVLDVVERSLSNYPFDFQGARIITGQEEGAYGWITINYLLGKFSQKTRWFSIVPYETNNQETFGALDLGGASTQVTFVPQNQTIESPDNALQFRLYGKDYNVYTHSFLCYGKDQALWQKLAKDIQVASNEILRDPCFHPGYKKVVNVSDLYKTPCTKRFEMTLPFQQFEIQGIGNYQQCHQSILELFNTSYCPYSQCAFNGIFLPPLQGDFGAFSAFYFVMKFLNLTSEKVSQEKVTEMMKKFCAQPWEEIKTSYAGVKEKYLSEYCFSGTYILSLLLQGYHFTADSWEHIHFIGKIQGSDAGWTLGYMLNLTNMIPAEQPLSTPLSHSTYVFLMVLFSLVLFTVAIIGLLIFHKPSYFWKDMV
Protocol: The applied enzyme inhibition assay has been described (Iqbal J, Vollmayer P, Braun N, Zimmermann H, Müller C E. A capillary electrophoresis method for the characterization of ecto-nucleoside triphosphate diphosphohydrolases (NTPDases) and the analysis of inhibitors by in-capillary enzymatic microreaction. Purinergic Signalling 2005, 1, 349-358).
A. CE instrumentation: All experiments were carried out using a P/ACE MDQ capillary electrophoresis system (Beckman Instruments, Fullerton, Calif., USA) equipped with a UV detection system coupled with a diode-array detector (DAD). Data collection and peak area analysis were performed by the P/ACE MDQ software 32 KARAT obtained from Beckman Coulter. The capillary temperature was kept constant at 25° C. The temperature of the sample storing unit was also adjusted to 25° C. The electrophoretic separations were carried out using an eCAP polyacrylamide-coated fused-silica capillary [(30 cm (20 cm effective length)×50 μm internal diameter (I.D.)×360 μm outside diameter (O.D.), obtained from CS-Chromatographie (Langerwehe, Germany)]. The separation was performed using an applied current of −60 μA and a data acquisition rate of 8 Hz. Analytes were detected using direct UV absorbance at 210 nm. The capillary was conditioned by rinsing with water for 2 min and subsequently with buffer (phosphate 50 mM, pH 6.5) for 1 min. Sample injections were made at the cathodic side of the capillary.
B. NTPDase inhibition assay by capillary electrophoresis: Enzyme inhibition assays were carried out at 37° C. in a final volume of 100 μl. The reaction mixture contained 320 μM of ATP (substrate) in reaction buffer. The reaction buffer contained 140 mM NaCl, 5 mM KCl, 1 mM MgCl2, 2 mM CaCl2, and 10 mM Hepes, pH 7.4.
Different concentrations of inhibitors dissolved in DMSO or water (10 μl) were added and the reaction was initiated by the addition of 10 μl of the appropriately diluted recombinant or native human or rat NTPDase enzyme. […] The mixture (final volume 100 μl) was incubated for 15 min and terminated by heating at 99° C. for 4 min. Aliquots of the reaction mixture (50 μl) were then transferred to mini-CE vials and injected into the CE instrument under the conditions described above. 20 μM of UMP was used as internal standard. Inhibition of NTPDase was tested over a range of 6 to 8 concentrations of test compound spanning 3 orders of magnitude to determine K1 values. Each analysis was repeated two times (in triplicates) in two separate experiments. The Cheng-Prusoff equation was used to calculate the K1 values from the IC50 values, determined by the non-linear curve fitting program PRISM® 3.0 (GraphPad, San Diego, Calif., USA). In table 1K, values of selected compounds as inhibitors of human NTPDases are given.

[3] = biological target: hP2Y2 (Homo sapiens, UniProt P41231); experiment: Inhibition of UTP binding at hP2Y2; conditions: read-out: hP2Y2 % inhibition of UTP binding at 100 μM, n = 3, mean ± SEM
Chain of hP2Y2 (P41231 whole entry): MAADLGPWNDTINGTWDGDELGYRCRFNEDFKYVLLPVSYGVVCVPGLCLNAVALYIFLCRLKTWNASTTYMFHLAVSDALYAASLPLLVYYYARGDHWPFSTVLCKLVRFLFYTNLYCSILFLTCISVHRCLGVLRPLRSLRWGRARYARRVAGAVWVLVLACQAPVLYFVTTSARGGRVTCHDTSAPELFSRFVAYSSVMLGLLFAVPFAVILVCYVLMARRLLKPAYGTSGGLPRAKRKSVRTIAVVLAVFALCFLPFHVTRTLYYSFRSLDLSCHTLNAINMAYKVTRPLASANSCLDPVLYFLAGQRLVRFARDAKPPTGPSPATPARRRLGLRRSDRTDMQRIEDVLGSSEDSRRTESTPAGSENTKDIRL
Protocol: (§1) In table 2 inhibition data of selected examples at human P2Y receptor subtypes were collected. It can be seen that no compound was identified that inhibited P2Y receptors at high concentrations of 100 μM and 10 μM, respectively.

[4] = biological target: T3, human NTPDase2 (Homo sapiens, UniProt Q9Y5L3); experiment: NTPDase inhibition assay by capillary electrophoresis (CE), NTPDase2; assay type: biochemical
T3 sequence (Q9Y5L3 1-495): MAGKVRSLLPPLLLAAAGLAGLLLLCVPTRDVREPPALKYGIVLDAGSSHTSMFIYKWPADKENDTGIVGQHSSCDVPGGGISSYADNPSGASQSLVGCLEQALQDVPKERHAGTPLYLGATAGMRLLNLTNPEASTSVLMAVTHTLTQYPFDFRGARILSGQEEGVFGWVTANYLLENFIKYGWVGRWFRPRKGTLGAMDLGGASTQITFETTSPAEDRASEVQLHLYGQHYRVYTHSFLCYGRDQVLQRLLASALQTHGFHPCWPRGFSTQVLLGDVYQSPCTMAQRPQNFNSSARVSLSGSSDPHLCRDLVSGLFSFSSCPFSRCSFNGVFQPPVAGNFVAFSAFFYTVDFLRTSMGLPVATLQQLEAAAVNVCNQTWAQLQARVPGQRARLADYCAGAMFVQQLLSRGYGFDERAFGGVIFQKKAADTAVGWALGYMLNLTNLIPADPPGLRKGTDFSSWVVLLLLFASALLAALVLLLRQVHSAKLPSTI

[5] = biological target: hP2Y4 (Homo sapiens, UniProt P51582); experiment: Inhibition of UTP binding at hP2Y4; conditions: read-out: hP2Y4 % inhibition of UTP binding at 100 μM, n = 3, mean ± SEM
Chain of hP2Y4 (P51582 whole entry): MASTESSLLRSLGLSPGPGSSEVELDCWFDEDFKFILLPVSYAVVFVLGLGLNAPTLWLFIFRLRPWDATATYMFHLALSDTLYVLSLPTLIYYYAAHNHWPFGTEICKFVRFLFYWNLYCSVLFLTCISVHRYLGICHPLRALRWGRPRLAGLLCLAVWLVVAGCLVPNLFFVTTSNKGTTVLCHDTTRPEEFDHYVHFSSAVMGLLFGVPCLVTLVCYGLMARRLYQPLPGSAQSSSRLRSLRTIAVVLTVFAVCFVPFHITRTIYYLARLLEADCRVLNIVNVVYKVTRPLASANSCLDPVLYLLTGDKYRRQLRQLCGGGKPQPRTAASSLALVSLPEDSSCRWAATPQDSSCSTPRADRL
Protocol: as §1

[6] = biological target: rP2Y6 (Rattus norvegicus, UniProt Q63371); experiment: Inhibition of UDP binding at rP2Y6; conditions: read-out: rP2Y6 % inhibition of UDP binding at 100 μM, n = 3, mean ± SEM
Chain of rP2Y6 (Q63371 whole entry): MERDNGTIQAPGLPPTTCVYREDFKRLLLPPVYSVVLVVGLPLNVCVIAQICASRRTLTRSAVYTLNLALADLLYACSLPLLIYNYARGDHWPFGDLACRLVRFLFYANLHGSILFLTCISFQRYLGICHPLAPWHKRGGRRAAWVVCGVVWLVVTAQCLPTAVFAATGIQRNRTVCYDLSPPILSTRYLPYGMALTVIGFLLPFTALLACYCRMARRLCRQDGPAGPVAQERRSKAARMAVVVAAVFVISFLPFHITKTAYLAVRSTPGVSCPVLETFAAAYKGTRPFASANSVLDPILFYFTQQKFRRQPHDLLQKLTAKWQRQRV

[7] = biological target: hP2Y12 (Homo sapiens, UniProt Q9H244); experiment: Inhibition of [3H]PSB-0413 binding at hP2Y12; conditions: mean ± SEM, read-out: hP2Y12 % Inhibition of [^3H]PSB-0413 Binding at 10 μM, n = 3
Chain of hP2Y12 (Q9H244 whole entry): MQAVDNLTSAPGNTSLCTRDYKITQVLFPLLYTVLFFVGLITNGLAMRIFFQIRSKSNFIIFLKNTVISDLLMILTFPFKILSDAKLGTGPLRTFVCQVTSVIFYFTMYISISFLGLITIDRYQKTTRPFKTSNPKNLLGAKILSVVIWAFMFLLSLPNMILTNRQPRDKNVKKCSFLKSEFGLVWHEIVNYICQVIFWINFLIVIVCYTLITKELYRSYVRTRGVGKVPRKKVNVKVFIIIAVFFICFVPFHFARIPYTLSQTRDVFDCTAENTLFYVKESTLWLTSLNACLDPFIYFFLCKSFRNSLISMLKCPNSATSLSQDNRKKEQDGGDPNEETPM
Protocol: as §1

Ki [1] [µM] | Ki [2] [µM] | Compound | other results
34.3 ± 0.2 |  | O=C(O)CC[C@H](NC(=O)CNC(=O)[C@H]1O[C@@H](N2CCC(=O)NC2=O)[C@H](O)[C@@H]1O)C(=O)O [Compound 24, 2-[2-((2S,3R,4S,5R)-5-(2,4-Dioxo-3,4,5,6-dihydropyrimidine-1(2H)-yl)-3,4-dihydroxy-tetrahydrofurane-2-carboxamido)ethaneamido]-(S)-glutamic acid] | 
0.18 ± 0.014 |  | O=C(O)C[C@H](NC(=O)CCCNC(=O)[C@H]1O[C@@H](N2CCC(=O)NC2=O)[C@H](O)[C@@H]1O)C(=O)O [Compound 23, 2-[4-((2S,3R,4S,5R)-5-(2,4-Dioxo-3,4,5,6-tetrahydropyrimidine-1(2H)-yl)-3,4-dihydroxy-tetrahydrofurane-2-carboxamido)butaneamido]-(S)-aspartic acid] | 
 | 29 ± 4 | CCOC(=O)C(CC(=O)O)NC(=O)CCCNC(=O)[C@H]1O[C@@H](n2ccc(=O)[nH]c2=O)[C@H](O)[C@@H]1O (stereo partly drawn) [Compound 15, 2-[4-((2S,3R,4S,5R)-5-(2,4-Dioxo-3,4-dihydropyrimidin-1(2H)-yl)-3,4-dihydroxy-tetrahydrofurane-2-carboxamido)butaneamido]-(S)-aspartic acid-1-ethylester] | inhibition at 100 µM [3]: -28 ± 11%
6.47 ± 1.31 |  | O=C(CNC(=O)[C@H]1O[C@@H](n2ccc(=O)[nH]c2=O)C(O)C1O)Nc1ccc(CP(=O)(O)O)cc1 (stereo in doubt) [Compound 21, 4-[2-((2S,3R,4S,5R)-5-(2,4-Dioxo-3,4-dihydropyrimidine-1(2H)-yl)-3,4-dihydroxy-tetrahydrofurane-2-carboxamido)ethaneamido]benzylphosphonic acid] | 
0.78 ± 0.18 | 10.8 ± 1 | O=C(O)CCC(NC(=O)CCNC(=O)[C@H]1O[C@@H](N2CCC(=O)NC2=O)[C@H](O)[C@@H]1O)C(=O)O (stereo partly drawn) [Compound 14, 2-[3-((2S,3R,4S,5R)-5-(2,4-Dioxo-3,4,5,6-tetrahydropyrimidin-1(2H)-yl)-3,4-dihydroxy-tetrahydrofurane-2-carboxamido)propaneamido]-(S)-glutamic acid] | inhibition at 10 µM [7]: 6 ± 4%
1.61 ± 0.62 |  | Cc1cn([C@@H]2O[C@H](C(=O)NCCCC(=O)NC(CC(=O)O)C(=O)O)[C@@H](O)[C@H]2O)c(=O)[nH]c1=O (stereo partly drawn) [Compound 25, 2-[4-((2S,3R,4S,5R)-5-(2,4-Dioxo-5-methylpyrimidin-1(2H)-yl)-3,4-dihydroxy-tetrahydrofurane-2-carboxamido)butaneamido]-(S)-aspartic acid] | 

Compound | Ki [1] [µM] | Ki [2] [µM] | other results
CCOP(=O)(OCC)C(NC(=O)CNC(=O)[C@H]1O[C@@H](n2ccc(=O)[nH]c2=O)C(O)C1O)P(=O)(OCC)OCC (stereo in doubt) [Compound 10, 2-[(2S,3R,4S,5R)-5-(2,4-Dioxo-3,4-dihydropyrimidin-1(2H)-yl)-3,4-dihydroxy-tetrahydrofurane-2-carboxamido]ethaneamidomethylenediphosphonic acid tetraethylester] |  | 93 ± 14 | Ki [4]: ~165 µM; inhibition at 1000 µM ([4]; read-out: NTPDase2 inhibition (%) at 1 mM): 54%; inhibition at 100 µM [5]: 34 ± 15%; inhibition at 100 µM [3]: -38 ± 11%; inhibition at 100 µM [6]: 8 ± 14%; inhibition at 10 µM [7]: 2 ± 5%
